Here are results for 13 molecules from PubChem BioAssay (NCI).

Some test systems named below: LXFL 529 NSCLC; OVCAR-5 ovarian; NCI-H460 lung; IGROV1 ovarian; SK-MEL-5 melanoma; KM20L2 colon; HS 578T breast; T-47D breast.
Assay in all cases: NCI anticancer screen, dose series, 48 h

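Assay format: 96-well plates, 48-hour exposure. Abbreviation: GI50, concentration required for 50% inhibition of growth. TGI is the concentration that stops growth completely.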 Where only a bound is given, the exact number is not on record here.

With `Nc1n[nH]c(CCc2nc(N)n[nH]2)n1`, the TGI in the experiment on LXFL 529 NSCLC, in the experiment on OVCAR-5 ovarian, with NCI-H460 lung, with IGROV1 ovarian, with SK-MEL-5 melanoma and in the experiment with KM20L2 colon was over 100 µM in each case.
With `Cc1cccc2c(N)c3ccccc3nc12`, the GI50 in the experiment with HS 578T breast is 3.44 µM; in the experiment on OVCAR-5 ovarian, 1.37 µM; in the experiment with NCI-H460 lung it was 0.523 µM; in the experiment with IGROV1 ovarian, 2.18 µM; in the experiment on SK-MEL-5 melanoma, 1.77 µM; in the experiment with T-47D breast, 2.19 µM. Moreover, the TGI with HS 578T breast is 17.4 µM; in the experiment on OVCAR-5 ovarian, 11.9 µM; with NCI-H460 lung, 10.5 µM; in the experiment with IGROV1 ovarian, 9.67 µM; in the experiment on SK-MEL-5 melanoma, 3.26 µM; with T-47D breast, 6.85 µM.
Turning to `O=C1OC(OCC#CCOC2OC(=O)C(Cl)=C2Cl)C(Cl)=C1Cl` (stereo unspecified), the TGI with HS 578T breast was 50.5 µM; in the experiment with OVCAR-5 ovarian, 33.2 µM; in the experiment on NCI-H460 lung, 58.9 µM; in the experiment on IGROV1 ovarian, 29.9 µM; with SK-MEL-5 melanoma it was 43.4 µM; in the experiment on T-47D breast, 36.7 µM.
Take `CCN(CC)CCSCCCNc1c2ccc(Cl)cc2nc2ccc(OC)cc12`: the GI50 in the experiment with HS 578T breast was 2.12 µM; in the experiment with OVCAR-5 ovarian it was 1.14 µM; in the experiment with NCI-H460 lung it was 0.383 µM; in the experiment with IGROV1 ovarian, 1.56 µM; in the experiment on SK-MEL-5 melanoma it was 1.8 µM; with T-47D breast it was 2.05 µM. In addition, the TGI with HS 578T breast came to 5.28 µM; in the experiment on OVCAR-5 ovarian it was 4.39 µM; with NCI-H460 lung, 1.58 µM; with IGROV1 ovarian, 4.74 µM; in the experiment with SK-MEL-5 melanoma, 3.24 µM; in the experiment on T-47D breast, 4.82 µM.
For `NCCSCCc1ccccc1`, the TGI with HS 578T breast, in the experiment with OVCAR-5 ovarian, in the experiment with NCI-H460 lung, in the experiment on IGROV1 ovarian, in the experiment on SK-MEL-5 melanoma and in the experiment on T-47D breast was over 100 µM throughout.
In the case of `Cc1c(Sc2ccccc2)[n+](=O)c2cc(Cl)c(Cl)cc2n1[O-]`, the GI50 with HS 578T breast was over 100 µM; in the experiment with OVCAR-5 ovarian it was over 100 µM; in the experiment on NCI-H460 lung, over 100 µM; in the experiment on IGROV1 ovarian, 15.5 µM; with SK-MEL-5 melanoma, 54.1 µM; in the experiment on T-47D breast, 36.2 µM. For the same molecule, the TGI with HS 578T breast is over 100 µM; with OVCAR-5 ovarian, over 100 µM; in the experiment with NCI-H460 lung, over 100 µM; in the experiment with IGROV1 ovarian it was 38 µM; with SK-MEL-5 melanoma, over 100 µM; in the experiment with T-47D breast, over 100 µM.
Turning to `N#Cc1cc(S(=O)(=O)Nc2nc3ccccc3s2)c(SCc2ccccc2)cc1Cl`, the GI50 in the experiment on HS 578T breast is 22.4 µM; with OVCAR-5 ovarian, 23.8 µM; in the experiment on NCI-H460 lung, 18.4 µM; in the experiment with IGROV1 ovarian it was 18.1 µM; with SK-MEL-5 melanoma it was 15.4 µM; in the experiment on T-47D breast it was 22.8 µM. Moreover, the TGI with HS 578T breast was 53.8 µM; in the experiment with OVCAR-5 ovarian, 54.7 µM; in the experiment on NCI-H460 lung it was over 100 µM; in the experiment with IGROV1 ovarian it was 46.6 µM; in the experiment with SK-MEL-5 melanoma it was 31 µM; with T-47D breast, 73.7 µM.
For `COc1ccc(-c2nn(-c3cccc(NC(=O)c4ccc(N5CCOCC5)c(C(F)(F)F)c4)c3)cc2-c2ccncc2)cc1Cl`, the GI50 was 2.65 µM with HS 578T breast; over 50 µM with OVCAR-5 ovarian; 5.23 µM in the experiment on NCI-H460 lung; over 50 µM in the experiment on IGROV1 ovarian; 6.4 µM in the experiment with SK-MEL-5 melanoma; 4.5 µM in the experiment on T-47D breast. Also, the TGI in the experiment on HS 578T breast, in the experiment on OVCAR-5 ovarian, in the experiment on NCI-H460 lung, in the experiment with IGROV1 ovarian, in the experiment on SK-MEL-5 melanoma and with T-47D breast was over 50 µM each time.
Regarding `C=C1c2c(Cl)ccc(O)c2C(O)=C2C(=O)[C@]3(O)C(O)=C(C(N)=O)C(=O)[C@@H](N(C)C)[C@@H]3[C@@H](O)[C@H]12`, the GI50 with HS 578T breast is 1.24 µM; in the experiment on OVCAR-5 ovarian it was 2.09 µM; in the experiment with NCI-H460 lung, 1.17 µM; in the experiment on IGROV1 ovarian it was 1.03 µM; in the experiment with SK-MEL-5 melanoma it was 0.801 µM; in the experiment with T-47D breast, 1.07 µM. The TGI in the experiment on HS 578T breast was found to be 9.68 µM; in the experiment on OVCAR-5 ovarian, 25.4 µM; with NCI-H460 lung, 7.54 µM; with IGROV1 ovarian, 5.22 µM; in the experiment with SK-MEL-5 melanoma it was 1.57 µM; in the experiment on T-47D breast, 4.06 µM.
On to `C/C=C(\C)C(=O)N[C@H]1C(O)C[C@]2(C)C3CC[C@@]4(C)C(CC[C@@H]4C(C)N(C)C)C3CCC2C1O` (stereo partly specified), for which the GI50 is 6.56 µM with HS 578T breast; 16.7 µM in the experiment on OVCAR-5 ovarian; 2.07 µM in the experiment with NCI-H460 lung; 13.3 µM in the experiment with IGROV1 ovarian; 1.65 µM in the experiment on SK-MEL-5 melanoma; 2.91 µM in the experiment on T-47D breast. The TGI with HS 578T breast is 29.6 µM; in the experiment on OVCAR-5 ovarian, over 47.9 µM; in the experiment with NCI-H460 lung, 4.59 µM; in the experiment with IGROV1 ovarian it was over 43.7 µM; with SK-MEL-5 melanoma, 3.46 µM; in the experiment on T-47D breast it was 17.7 µM.
For the molecule `CCc1nc(N)nc(N)c1-c1ccc(Cl)c(N=CN(C)C)c1`, the TGI was over 100 µM in the experiment on HS 578T breast; over 100 µM in the experiment on OVCAR-5 ovarian; over 95.2 µM in the experiment on NCI-H460 lung; over 100 µM in the experiment with IGROV1 ovarian; over 100 µM with SK-MEL-5 melanoma; over 100 µM in the experiment with T-47D breast.
`CC(Br)C(=O)Nc1ccc(C(=O)O)c(O)c1` (stereo unspecified): the TGI with HS 578T breast, with OVCAR-5 ovarian, in the experiment with NCI-H460 lung, with IGROV1 ovarian, with SK-MEL-5 melanoma and in the experiment on T-47D breast was over 100 µM each time.
For `Cn1c(=O)c(Oc2ccc(F)cc2F)cc2cnc(NCCS(C)(=O)=O)nc21`, the GI50 with HS 578T breast, in the experiment on OVCAR-5 ovarian, in the experiment on NCI-H460 lung, in the experiment with IGROV1 ovarian, in the experiment on SK-MEL-5 melanoma and in the experiment on T-47D breast was over 25 µM each time. For the same molecule, the TGI in the experiment with HS 578T breast, in the experiment on OVCAR-5 ovarian, with NCI-H460 lung, in the experiment on IGROV1 ovarian, in the experiment on SK-MEL-5 melanoma and with T-47D breast was over 25 µM in each case.
